Experimental data taken from ChEMBL document CHEMBL2390945, “Synthesis and characterization of 123I-CMICE-013: a potential SPECT myocardial perfusion imaging agent” (Bioorg Med Chem, 2013).

Key:
Type in all cases: ADME, organism-based
[1] = Biodistribution in rat liver at 15 mins; conditions: read-out: Drug uptake
[2] = Biodistribution in rat liver at 60 mins; conditions: read-out: Drug uptake
Liver [3] = assay: Biodistribution in rat liver at 15 uci, iv measured at 60 mins; conditions: in vivo, 1 h
Liver [4] = assay: Biodistribution in rat liver at 15 uci, iv measured at 15 mins; conditions: in vivo, 0.25 h

tissue uptake at 0.25 h [1] [%ID/g]	tissue uptake at 1 h [2] [%ID/g]	Drug uptake (Liver [3]) [% ID/g]	Drug uptake (Liver [4]) [% ID/g]	Compound
1.6	1.3	–	–	CC(C)(C)n1ncc(OCc2ccc(CCCC[18F])cc2)c(Cl)c1=O
–	–	0.9	1.4	CC(C)(C)n1ncc(OCc2ccc(COCCF)cc2)c(Cl)c1=O [FLURPIRIDAZ]
